Results published in patent US11718601B2 (Bristol-Myers Squibb Company, priority 2021, dated 2023).

Tests used:
Helios = target: T1, Helios (Homo sapiens, UniProt Q96SW2+Q9UKS7); test: Helios Cellular Degradation Assay (Helios, Jurkat); type: cell-based; settings: Jurkat cells, 72 h incubation, flow cytometry with Helios-PE antibody; read-out: Helios Jurkat IC50
T1 construct: endogenous in cells; host or cells: Jurkat cells
Protocol: (§1) Jurkat cells were plated at 80,000 cells/well in 40 μL RPMI+10% FBS in a 384 well cell culture plate prior to using acoustic dispensing technology for adding compound of interest. Cell cultures were incubated for 72 h at 37° C. and 5% CO2. In order to facilitate analysis, cell cultures were spun down at 200 rpm for 5 min and the supernatant was discarded. […] Subsequently, 30 μL of 1× Permeabilization buffer was added prior to centrifuging the cells and discarding the supernatant. Stained cells were resuspended in 25 μL of flow cytometry staining buffer (PBS+0.2% BSA) and analyzed using an Intellicyt Ique Plus flow cytometer.

Ikaros = target: T2, Ikaros (Homo sapiens, UniProt Q13422+Q96SW2); test: Helios Cellular Degradation Assay (Ikaros, Jurkat); type: cell-based; settings: Jurkat cells, 72 h incubation, flow cytometry with Ikaros-Alexa488 antibody; read-out: Ikaros Jurkat IC50
T2 construct: endogenous in cells; host or cells: Jurkat cells
T2 sequence (Q13422 whole entry): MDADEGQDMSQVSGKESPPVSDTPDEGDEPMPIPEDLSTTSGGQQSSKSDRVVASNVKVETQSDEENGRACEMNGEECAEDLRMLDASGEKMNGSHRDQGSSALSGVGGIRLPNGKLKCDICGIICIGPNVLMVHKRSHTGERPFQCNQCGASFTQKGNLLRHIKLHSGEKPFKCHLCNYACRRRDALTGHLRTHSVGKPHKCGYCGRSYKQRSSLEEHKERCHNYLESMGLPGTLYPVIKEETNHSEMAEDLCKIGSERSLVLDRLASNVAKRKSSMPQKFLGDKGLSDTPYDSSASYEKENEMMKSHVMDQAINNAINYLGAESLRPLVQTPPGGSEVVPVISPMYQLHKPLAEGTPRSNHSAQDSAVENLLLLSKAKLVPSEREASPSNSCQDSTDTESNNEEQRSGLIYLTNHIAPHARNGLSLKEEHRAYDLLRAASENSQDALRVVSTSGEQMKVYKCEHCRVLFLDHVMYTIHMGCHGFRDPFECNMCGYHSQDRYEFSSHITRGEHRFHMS
T2 sequence (Q96SW2 whole entry): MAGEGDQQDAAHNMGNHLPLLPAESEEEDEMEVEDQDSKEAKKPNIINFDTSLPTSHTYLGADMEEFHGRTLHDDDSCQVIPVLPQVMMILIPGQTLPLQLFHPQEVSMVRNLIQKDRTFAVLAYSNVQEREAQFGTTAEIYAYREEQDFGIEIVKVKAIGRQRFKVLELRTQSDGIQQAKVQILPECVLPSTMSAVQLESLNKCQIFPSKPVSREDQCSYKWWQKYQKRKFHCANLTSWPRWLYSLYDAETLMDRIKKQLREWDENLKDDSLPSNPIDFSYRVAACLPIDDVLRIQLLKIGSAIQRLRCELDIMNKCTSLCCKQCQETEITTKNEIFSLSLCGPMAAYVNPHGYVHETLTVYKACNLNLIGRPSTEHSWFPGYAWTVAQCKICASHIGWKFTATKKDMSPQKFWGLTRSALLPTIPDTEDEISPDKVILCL
T2 sequence (Q16531 whole entry partner): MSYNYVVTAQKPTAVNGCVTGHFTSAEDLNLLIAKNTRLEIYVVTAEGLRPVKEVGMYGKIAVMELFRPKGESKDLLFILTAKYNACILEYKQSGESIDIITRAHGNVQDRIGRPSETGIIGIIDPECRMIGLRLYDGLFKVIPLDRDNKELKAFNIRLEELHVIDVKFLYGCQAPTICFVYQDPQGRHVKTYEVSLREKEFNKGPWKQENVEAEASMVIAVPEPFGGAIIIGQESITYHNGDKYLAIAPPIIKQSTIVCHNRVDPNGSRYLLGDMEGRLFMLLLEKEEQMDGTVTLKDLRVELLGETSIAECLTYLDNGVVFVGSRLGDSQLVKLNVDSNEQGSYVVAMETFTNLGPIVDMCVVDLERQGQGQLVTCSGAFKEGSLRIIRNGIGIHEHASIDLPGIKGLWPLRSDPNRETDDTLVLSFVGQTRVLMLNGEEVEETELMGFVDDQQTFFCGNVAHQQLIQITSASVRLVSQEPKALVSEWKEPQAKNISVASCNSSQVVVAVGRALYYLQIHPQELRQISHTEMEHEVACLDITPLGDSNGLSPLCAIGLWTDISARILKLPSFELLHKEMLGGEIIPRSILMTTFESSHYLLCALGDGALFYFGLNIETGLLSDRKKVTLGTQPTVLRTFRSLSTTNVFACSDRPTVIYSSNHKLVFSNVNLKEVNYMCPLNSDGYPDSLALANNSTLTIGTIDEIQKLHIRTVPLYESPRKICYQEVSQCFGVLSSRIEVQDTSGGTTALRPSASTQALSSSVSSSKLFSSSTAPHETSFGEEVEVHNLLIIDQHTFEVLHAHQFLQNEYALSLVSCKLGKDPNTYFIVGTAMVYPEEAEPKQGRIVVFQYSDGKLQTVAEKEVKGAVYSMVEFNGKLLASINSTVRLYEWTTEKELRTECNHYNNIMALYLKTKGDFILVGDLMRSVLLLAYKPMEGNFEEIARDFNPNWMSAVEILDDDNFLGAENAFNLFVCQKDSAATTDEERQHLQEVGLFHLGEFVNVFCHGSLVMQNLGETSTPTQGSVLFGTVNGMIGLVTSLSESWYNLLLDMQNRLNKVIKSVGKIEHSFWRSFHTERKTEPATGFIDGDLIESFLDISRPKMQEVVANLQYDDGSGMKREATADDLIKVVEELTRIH
Protocol: as §1

T1 sequence (Q9UKS7 whole entry): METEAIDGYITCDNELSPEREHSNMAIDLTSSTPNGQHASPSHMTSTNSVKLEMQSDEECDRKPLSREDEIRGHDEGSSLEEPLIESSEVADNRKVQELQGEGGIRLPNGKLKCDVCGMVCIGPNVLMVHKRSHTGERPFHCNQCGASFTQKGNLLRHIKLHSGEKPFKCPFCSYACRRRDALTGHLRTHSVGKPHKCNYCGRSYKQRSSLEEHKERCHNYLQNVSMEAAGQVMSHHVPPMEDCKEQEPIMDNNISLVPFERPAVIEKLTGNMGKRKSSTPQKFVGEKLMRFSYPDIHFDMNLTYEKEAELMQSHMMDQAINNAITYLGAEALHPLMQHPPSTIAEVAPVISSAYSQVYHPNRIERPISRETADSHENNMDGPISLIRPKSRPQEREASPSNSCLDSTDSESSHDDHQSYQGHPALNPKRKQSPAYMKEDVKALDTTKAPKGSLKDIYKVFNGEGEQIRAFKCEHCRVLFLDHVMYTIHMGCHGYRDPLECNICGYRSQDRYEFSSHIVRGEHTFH
T1 sequence (Q96SW2 whole entry): as the sequence (Q96SW2 whole entry) above
T1 sequence (Q16531 whole entry partner): as the sequence (Q16531 whole entry partner) above

SMILES	DC50 (Helios) [nM]	DC50 (Ikaros) [nM]
Cc1cc(-c2ccc3c(c2)[C@@H](C)N(C2CCC(=O)NC2=O)C3=O)nc(N)c1C (single isomer, unassigned) [Example 9]	3	> 10000
Cc1cc(-c2ccc3c(c2)[C@H](C)N(C2CCC(=O)NC2=O)C3=O)nc(N)c1C#N (single isomer, unassigned) [Example 10]	310	> 10000
Cc1cc(-c2ccc3c(c2)[C@@H](C)N(C2CCC(=O)NC2=O)C3=O)nc(N)c1C#N (single isomer, unassigned) [Example 11]	6	> 10000
CNc1nc(-c2ccc3c(c2)[C@@H](C)N(C2CCC(=O)NC2=O)C3=O)cc(C)c1C (single isomer, unassigned) [Example 13]	2800	> 10000
CNc1nc(-c2ccc3c(c2)[C@H](C)N(C2CCC(=O)NC2=O)C3=O)cc(C)c1C#N (single isomer, unassigned) [Example 14]	1000	> 10000
CNc1nc(-c2ccc3c(c2)[C@@H](C)N(C2CCC(=O)NC2=O)C3=O)cc(C)c1C#N (single isomer, unassigned) [Example 15]	57	> 10000
Cc1cc(-c2ccc3c(c2)C(C)N(C2CCC(=O)NC2=O)C3=O)nc(N)c1F (single isomer, unassigned) [Example 21]	5.8	> 10000
Cc1cc(-c2ccc3c(c2)C(C)N(C2CCC(=O)NC2=O)C3=O)nc(N)c1F (single isomer, unassigned) [Example 22]	200	> 10000
Cc1cc(-c2ccc3c(c2C)CN(C2CCC(=O)NC2=O)C3=O)nc(N)c1C#N (stereo not shown) [Example 1, 2-amino-6-(2-(2,6-dioxopiperidin-3-yl)-4-methyl-1-oxoisoindolin-5-yl)-4-methylnicotinonitrile]	1400	> 10000
Cc1cc(-c2ccc3c(c2F)CN(C2CCC(=O)NC2=O)C3=O)nc(N)c1C#N (stereo not shown) [Example 3, 2-Amino-6-(2-(2,6-dioxopiperidin-3-yl)-4-fluoro-1-oxoisoindolin-5-yl)-4-methylnicotinonitrile]	3	> 10000
Cc1cc(-c2ccc3c(c2F)CN(C2CCC(=O)NC2=O)C3=O)nc(N)c1C (stereo not shown) [Example 7, 3-(5-(6-Amino-4,5-dimethylpyridin-2-yl)-4-fluoro-1-oxoisoindolin-2-yl)piperidine-2,6-dione]	1	> 10000
CNc1nc(-c2ccc3c(c2)[C@H](C)N(C2CCC(=O)NC2=O)C3=O)cc(C)c1C (stereo partly drawn) [Example 12, 3-((S)-5-(4,5-Dimethyl-6-(methylamino)pyridin-2-yl)-3-methyl-1-oxoisoindolin-2-yl) piperidine-2,6-dione]	33	> 10000
Cc1cc(-c2ccc3c(c2F)CN(C2CCC(=O)NC2=O)C3=O)nc(N)c1F (stereo not shown) [Example 19, 3-(5-(6-Amino-5-fluoro-4-methylpyridin-2-yl)-4-fluoro-1-oxoisoindolin-2-yl)piperidine-2,6-dione]	3.5	> 10000
Cc1cc(N)nc(-c2ccc3c(c2F)CN(C2CCC(=O)NC2=O)C3=O)c1F (stereo not shown) [Example 20, 3-(5-(6-Amino-3-fluoro-4-methylpyridin-2-yl)-4-fluoro-1-oxoisoindolin-2-yl)piperidine-2,6-dione]	–	> 10000
Cc1cc(-c2ccc3c(c2F)[C@@H](C)N(C2CCC(=O)NC2=O)C3=O)nc(N)c1C#N (stereo partly drawn) [Example 23, 2-Amino-6-((3R)-2-(2,6-dioxopiperidin-3-yl)-4-fluoro-3-methyl-1-oxoisoindolin-5-yl)-4-methylnicotinonitrile]	35	> 10000
Cc1cc(N)nc(-c2ccc3c(c2F)[C@@H](C)N(C2CCC(=O)NC2=O)C3=O)c1 (stereo partly drawn) [Example 24, 3-((R)-5-(6-Amino-4-methylpyridin-2-yl)-4-fluoro-3-methyl-1-oxoisoindolin-2-yl) piperidine-2,6-dione]	160	> 10000
C[C@@H]1c2c(ccc(-c3cc(C(F)(F)F)cc(N)n3)c2F)C(=O)N1C1CCC(=O)NC1=O (stereo partly drawn) [Example 25, 3-((R)-5-(6-Amino-4-(trifluoromethyl)pyridin-2-yl)-4-fluoro-3-methyl-1-oxoisoindolin-2-yl)piperidine-2,6-dione]	1300	> 10000
Cc1cc(-c2ccc3c(c2F)[C@@H](C)N(C2CCC(=O)NC2=O)C3=O)nc(N)c1F (stereo partly drawn) [Example 29, 3-((R)-5-(6-amino-5-fluoro-4-methylpyridin-2-yl)-4-fluoro-3-methyl-1-oxoisoindolin-2-yl)piperidine-2,6-dione]	24	> 10000
Cc1cc(-c2ccc3c(c2F)[C@H](C)N(C2CCC(=O)NC2=O)C3=O)nc(N)c1F (stereo partly drawn) [Example 30, 3-((S)-5-(6-Amino-5-fluoro-4-methylpyridin-2-yl)-4-fluoro-3-methyl-1-oxoisoindolin-2-yl)piperidine-2,6-dione]	700	> 10000
